{"source": "patent US20240424012A1", "about": "“COMBINATIONS AND USES THEREOF” (Incyte Corporation, priority 2011, published 2024)", "molecules": {"B1": {"name": "MOR208 (antibody, human IgG1, kappa, V domains shown)", "VH": "EVQLVESGGGLVKPGGSLKLSCAASGYTFTSYVMHWVRQAPGKGLEWIGYINPYNDGTKYNEKFQGRVTISSDKSISTAYMELSSLRSEDTAMYYCARGTYYYGTRVFDYWGQGTLVTVSS", "VL": "DIVMTQSPATLSLSPGERATLSCRSSKSLQNVNGNTYLYWFQQKPGQSPQLLIYRMSNLNSGVPDRFSGSGSGTEFTLTISSLEPEDFAVYYCMQHLEYPITFGAGTKLEIKR"}, "B2": {"name": "MOR208: anti-CD19 antibody; variable domains in FIG. 3, Fc regions in FIG. 4 (antibody)", "heavy": "EVQLVESGGGLVKPGGSLKLSCAASGYTFTSYVMHWVRQAPGKGLEWIGYINPYNDGTKYNEKFQGRVTISSDKSISTAYMELSSLRSEDTAMYYCARGTYYYGTRVFDYWGQGTLVTVSSASTKGPSVFPLAPSSKSTSGGTAALGCLVKDYFPEPVTVSWNSGALTSGVHTFPAVLQSSGLYSLSSWTVPSSSLGTQTYICNVNHKPSNTKVDKKVEPKSCDKTHTCPPCPAPELLGGPDVFLFPPKPKDTLMISRTPEVTCVVVDVSHEDPEVQFNWYVDGVEVHNAKTKPREEQFNSTFRVVSVLTVVHQDWLNGKEYKCKVSNKALPAPEEKTISKTKGQPREPQVYTLPPSREEMTKNQVSLTCLVKGFYPSDIAVEWESNGQPENNYKTTPPMLDSDGSFFLYSKLTVDKSRWQQGNVFSCSVMHEALHNHYTQKSLSLSPGK", "light": "DIVMTQSPATLSLSPGERATLSCRSSKSLQNVNGNTYLYWFQQKPGQSPQLLIYRMSNLNSGVPDRFSGSGSGTEFTLTISSLEPEDFAVYYCMQHLEYPITFGAGTKLEIKRTVAAPSVFIFPPSDEQLKSGTASVVCLLNNFYPREAKVQWKVDNALQSGNSQESVTEQDSKDSTYSLSSTLTLSKADYEKHKVYACEVTHQGLSSPVTKSFNRGEC"}}, "key": {"[1]": {"tested_on": "RAMOS human Burkitt's lymphoma cells", "test": "Subcutaneously (SC)-implanted human Ramos Burkitt's B-cell lymphoma tumor growth model", "type": "in vivo, SCID mice", "details": "for Increased time to 4000 mg [%] / Reduced tumor growth at study Day 38 (%): control 0; for Tumor Volume at study day 38, Average: vehicle average 4014"}, "[2]": {"tested_on": "MEC-1 cells", "test": "ADCC / cytotoxicity assay: killing of MEC-1 cells by MOR208 and fludarabine alone and in combination", "type": "cell-based, human", "details": "for normalized specific killing: background subtracted, combination set to 1, Fludarabine 18 μg/ml, MOR208 66 pM; for % dead cells: raw data, MOR208 66 pm, FLU 18 μg/ml, 72 h pre-incubation, E:T 30:1, 4 h"}, "[3]": {"tested_on": "RAMOS human lymphoma cells", "type": "in vivo, SCID mice", "details": "MOR208 3 mg/kg i.v. twice weekly for 3 weeks; FLU 125 mg/kg i.p. once daily Day 0-5; combination of both; vehicle 18.5"}, "[4]": {"target": "T1, Human CD19 (human, UniProt P15391 20-556)", "T1 sequence": "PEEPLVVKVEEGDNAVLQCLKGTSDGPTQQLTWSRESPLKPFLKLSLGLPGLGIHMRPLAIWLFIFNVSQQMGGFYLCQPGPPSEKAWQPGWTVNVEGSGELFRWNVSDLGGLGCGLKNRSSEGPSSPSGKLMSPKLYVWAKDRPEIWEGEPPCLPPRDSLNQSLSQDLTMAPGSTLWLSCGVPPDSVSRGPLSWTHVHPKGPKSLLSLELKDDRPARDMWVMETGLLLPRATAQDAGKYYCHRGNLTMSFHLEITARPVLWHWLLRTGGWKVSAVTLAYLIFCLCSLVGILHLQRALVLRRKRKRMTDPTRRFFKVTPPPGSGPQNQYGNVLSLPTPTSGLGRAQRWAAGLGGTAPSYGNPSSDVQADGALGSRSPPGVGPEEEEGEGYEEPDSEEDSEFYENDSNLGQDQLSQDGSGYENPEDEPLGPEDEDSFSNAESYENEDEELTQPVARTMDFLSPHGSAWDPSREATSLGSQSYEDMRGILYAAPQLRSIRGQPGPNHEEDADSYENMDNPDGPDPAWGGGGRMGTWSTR", "test": "cell-based or functional assay"}, "[5]": {"details": "MOR208 10 mg/kg, FLU 125 mg/kg, combination of MOR208 and FLU 125"}, "[6]": {"details": "MOR208 10 mg/kg, Fludarabine 125 mg/kg IP Q1Dx5, combination MOR208/FLU 125"}, "[7]": {"details": "MOR208 10 mg/kg, Fludarabine 125 mg/kg, MOR208 + FLU 125 combination"}, "[8]": {"details": "Experiment 1 (PBMC donor 1), control RefMab33"}, "[9]": {"details": "Experiment 2 (PBMC donor 2), control RefMab33"}, "[10]": {"details": "Experiment 3 (PBMC donor 3), control PBMCs alone"}}, "note": "“And” between values parts separate entries of the source, which are not always exact repeats. Identical values can stand only once."}
{"molecule": "Fludarabine [reference compound]", "values": [{"measurement": "Increased time to 4000 mg [%]", "setting": "[1]; FLU 250 mg/kg", "result": 30.19, "unit": "%"}, {"measurement": "Reduced tumor growth at study Day 38 (%)", "setting": "[1]; FLU 250 mg/kg", "result": 64.8, "unit": "%"}, {"measurement": "Increased time to 4000 mg [%], normalized to Fractional Product combination = 1", "setting": "[1]; Fludarabine 250 mg/kg", "result": 0.8}, {"measurement": "Reduced tumor growth at study Day 38 (%), normalized to Fractional Product combination = 1", "setting": "[1]; Fludarabine 250 mg/kg", "result": 0.9}, {"measurement": "Tumor Volume at study day 38, Average", "setting": "[1]; Fludarabine 250 mg/kg IP Q1Dx5", "result": 1413, "unit": "mm^3"}, {"measurement": "Increased time to 4000 mg [%]", "setting": "[1]; [5]", "result": 22.37, "unit": "%"}, {"measurement": "Reduced tumor growth at study Day 38 (%)", "setting": "[1]; [5]", "result": 48.3, "unit": "%"}, {"measurement": "Tumor Volume at study day 38, Average", "setting": "[1]; [6]", "result": 2073, "unit": "mm^3"}, {"measurement": "Increased time to 4000 mg [%], normalized to Fractional Product combination = 1", "setting": "[1]; [7]", "result": 0.62}, {"measurement": "Reduced tumor growth at study Day 38 (%), normalized to Fractional Product combination = 1", "setting": "[1]; [7]", "result": 0.75}, {"measurement": "normalized specific killing", "setting": "[2]; Average of Experiments 1-3", "result": 0.7}, {"measurement": "% dead cells", "setting": "[2]; [8]", "result": 36.39, "unit": "%"}, {"measurement": "normalized specific killing", "setting": "[2]; Experiment 1", "result": 0.6}, {"measurement": "% dead cells", "setting": "[2]; [9]", "result": 38.48, "unit": "%"}, {"measurement": "normalized specific killing", "setting": "[2]; Experiment 2", "result": 0.7}, {"measurement": "% dead cells", "setting": "[2]; [10]", "result": 57.27, "unit": "%"}, {"measurement": "normalized specific killing", "setting": "[2]; Experiment 3", "result": 0.8}, {"measurement": "EC50 (MEC-1 cell killing)", "setting": "[2]; FLU, test concentration stated to be near or at the EC50", "result": "~18", "unit": "µg/mL"}, {"measurement": "Median Survival Time", "setting": "[3]", "result": 22, "unit": "days"}]}
{"molecule": "B1", "values": [{"measurement": "EC50 of MEC-1 cell killing (ADCC)", "setting": "[4]", "result": "~0.066", "unit": "nM"}]}
{"molecule": "B2", "values": [{"measurement": "Increased time to 4000 mg [%]", "setting": "[1]; [5]", "result": 17.52, "unit": "%"}, {"measurement": "Reduced tumor growth at study Day 38 (%)", "setting": "[1]; [5]", "result": 38.5, "unit": "%"}, {"measurement": "Tumor Volume at study day 38, Average", "setting": "[1]; [6]", "result": 2468, "unit": "mm^3"}, {"measurement": "Increased time to 4000 mg [%], normalized to Fractional Product combination = 1", "setting": "[1]; [7]", "result": 0.48}, {"measurement": "Reduced tumor growth at study Day 38 (%), normalized to Fractional Product combination = 1", "setting": "[1]; [7]", "result": 0.57}, {"measurement": "Tumor Volume at study day 38", "setting": "[1]; single values (Group 1-8), MOR208 10 mg/kg, Fludarabine 125 mg/kg IP Q1Dx5, combination MOR208/FLU 125", "result": "1764 mm^3 and 1862 mm^3 and 3402 mm^3 and 2560 mm^3 and 2816 mm^3 and 2138 mm^3 and 2025 mm^3 and 3179 mm^3"}, {"measurement": "normalized specific killing", "setting": "[2]; Average of Experiments 1-3", "result": 0.5}, {"measurement": "% dead cells", "setting": "[2]; [8]", "result": 35.2, "unit": "%"}, {"measurement": "normalized specific killing", "setting": "[2]; Experiment 1", "result": 0.6}, {"measurement": "% dead cells", "setting": "[2]; [9]", "result": 29.8, "unit": "%"}, {"measurement": "normalized specific killing", "setting": "[2]; Experiment 2", "result": 0.4}, {"measurement": "% dead cells", "setting": "[2]; [10]", "result": 47.01, "unit": "%"}, {"measurement": "normalized specific killing", "setting": "[2]; Experiment 3", "result": 0.5}, {"measurement": "Median Survival Time", "setting": "[3]", "result": 23.5, "unit": "days"}]}
